# From PMC10230504, “Versatile Chemo-Biocatalytic Cascade Driven by a Thermophilic and Irreversible C–C Bond-Forming α-Oxoamine Synthase” (ACS Sustainable Chemistry & Engineering, 2023)
# Target: T1, ThAOS (Thermus thermophilus, UniProt Q5SHZ8)
# T1 construct: gene TTHA1582; recombinant, codon-optimized clone (GenScript), expressed in E. coli BL21 (DE3), purified
# T1 sequence (Q5SHZ8 2-395): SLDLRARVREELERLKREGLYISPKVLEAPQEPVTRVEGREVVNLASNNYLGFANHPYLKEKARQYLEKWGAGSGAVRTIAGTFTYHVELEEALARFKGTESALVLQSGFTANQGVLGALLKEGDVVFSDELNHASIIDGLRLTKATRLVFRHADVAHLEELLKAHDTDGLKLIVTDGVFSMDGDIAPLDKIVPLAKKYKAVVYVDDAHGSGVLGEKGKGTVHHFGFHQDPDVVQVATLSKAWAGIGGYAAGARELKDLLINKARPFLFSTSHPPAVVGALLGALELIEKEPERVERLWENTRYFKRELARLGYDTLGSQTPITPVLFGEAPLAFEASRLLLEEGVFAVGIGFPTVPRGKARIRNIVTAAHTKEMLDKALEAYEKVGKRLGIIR
# Experiment: DTNB assay of CoASH release; product confirmed by mass spectrometry
# Type: biochemical
# Settings: co-substrate acyl-CoA; 50 °C
compound,measurement,value
NCC(=O)O [Gly],DTNB assay of CoASH release; product confirmed by mass spectrometry,"ThAOS was active with AAs (S)-2-aminobutyric acid (L-Aba), L-Ala, Gly and L-Ser"
